Data reported in EP2682119A1, “Aromatic N-heterocycle derivatives for use as medicine” (Université Libre de Bruxelles, priority 2012, dated 2014).
Counter-ions that a name gives are not always drawn. Like-named read-outs stand apart in the source and are kept apart here.

Key:
recombinant MPO = target: T1, recombinant MPO (Homo sapiens, UniProt P05164); assay: Myeloperoxidase inhibition (MPO) assay, taurine chloramine production by the MPO/H2O2/Cl- system; assay type: biochemical; conditions: for inhibition properties against myeloperoxidase enzyme: compared with the corresponding compound wherein the fluor atom is at position 5 on the indole ring
T1 construct: made in house
T1 sequence (P05164 49-745): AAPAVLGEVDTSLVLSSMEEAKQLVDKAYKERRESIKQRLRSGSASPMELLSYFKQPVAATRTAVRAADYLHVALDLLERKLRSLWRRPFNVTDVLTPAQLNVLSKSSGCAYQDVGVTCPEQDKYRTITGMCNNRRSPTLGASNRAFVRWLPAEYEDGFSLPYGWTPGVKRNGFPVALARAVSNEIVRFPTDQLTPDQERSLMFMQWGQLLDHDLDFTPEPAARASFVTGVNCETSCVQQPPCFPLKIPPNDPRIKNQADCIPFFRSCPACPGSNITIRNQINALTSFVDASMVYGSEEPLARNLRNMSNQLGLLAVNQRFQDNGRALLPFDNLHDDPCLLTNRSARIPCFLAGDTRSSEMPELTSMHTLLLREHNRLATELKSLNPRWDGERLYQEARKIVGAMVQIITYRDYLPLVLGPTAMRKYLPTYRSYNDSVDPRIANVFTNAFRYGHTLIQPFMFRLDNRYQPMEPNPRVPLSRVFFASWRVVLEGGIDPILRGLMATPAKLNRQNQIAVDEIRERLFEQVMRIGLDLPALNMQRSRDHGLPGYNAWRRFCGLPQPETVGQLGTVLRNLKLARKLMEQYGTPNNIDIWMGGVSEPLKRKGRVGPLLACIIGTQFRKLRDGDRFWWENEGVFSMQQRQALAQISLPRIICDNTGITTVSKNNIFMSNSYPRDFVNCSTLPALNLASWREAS
Experimental: Myeloperoxidase inhibition (MPO) assay procedure
The assay was based on the production of taurine chloramine produced by the MPO/H2O2/Cl- system in the presence of a selected inhibitor at defined concentration. The reaction mixture contained the following reagents in a final volume of 200 µL: pH 7.4 phosphate buffer (10 mM PO4^3-/300 mM NaCl), taurine (15 mM), the compound to be tested (up to 20 µM), and the fixed amount of the recombinant MPO (6.6 µL of MPO batch solution diluted 2.5 times, 40 nM). When necessary, the volume was adjusted with water. This mixture was incubated at 37 °C and the reaction initiated with 10.0 µL of H2O2 (100 µM). After 5 min, the reaction was stopped by the addition of 10 µL of catalase (8 U/µL).
(§1) Recombinant MPO was prepared as previously described. Each batch solution is characterized by its protein concentration (mg/mL), its activity (U/mL), and its specific activity (U/mg). The chlorination activity was determined according to Hewson and Hager. […] The different steps were carried out in the dark, and the protein concentration was measured by the Lowry assay for both MPO and LDL.

[1] = target: T2, LDL oxidation carried out by MPO (Homo sapiens, UniProt P05164); assay: Inhibition of LDL oxidation by MPO, ELISA with Mab AG9; assay type: biochemical
T2 construct: made in house
T2 sequence (P05164 49-745): T1 sequence (P05164 49-745)
Experimental: Low-density lipoproteins oxidation inhibition
Preparation of the Recombinant Enzyme and of LDL
as §1
Inhibition of LDL Oxidation
LDL oxidation was carried out at 37 °C in a final volume of 500 µL. The reaction mixture contained the following reagents at the final concentrations indicated between brackets: pH 7.2, PBS buffer, MPO (1 µg/mL), LDL (1000 µg/mL), 2 µL 1 N HCl (4 mM), one of the drugs at different concentrations, and H2O2 (100 µM). The reaction was stopped after 5 min by cooling the tubes in ice. The assay was performed as described by Moguilevsky et al. in a NUNC maxisorp plate (VWR, Zaventem, Belgium): 200 ng/well of LDL was coated overnight at 4 °C in a sodium bicarbonate pH 9.8 buffer (100 µL) Afterward, the plate was washed with TBS 80 buffer and then saturated during 1 h at 37 °C with the PBS buffer containing 1% BSA (150 µL/well). […] After incubation for 1 h at 37 °C, the plate was washed four times with the TBS 80 buffer and a 3000 times diluted solution of IgG antimouse alkaline phosphatase (Promega, Leiden, The Netherlands) in the same buffer was added (100 µL/well). The wells were washed again four times and a revelation solution (150 µL/well) containing 5 mg of para-nitrophenyl phosphate in 5 mL of diethanolamine buffer was added for 30 min at room temperature. The reaction was stopped with 60 µL/well of 3 N NaOH solution. […] Results were expressed as IC50.

[2] = target: T3, human 5-HT transporter (hSERT) (Homo sapiens, UniProt P31645); assay: 5-HT reuptake inhibition, [3H]5-HT uptake in transfected HEK-293 MSR cells; assay type: cell-based; conditions: serotonin reuptake inhibition
T3 construct: expressed in transfected cells; host or cells: HEK-293 MSR cells (Invitrogen), plasmid pcDNA3.1-hSERT
T3 sequence (P31645 whole entry): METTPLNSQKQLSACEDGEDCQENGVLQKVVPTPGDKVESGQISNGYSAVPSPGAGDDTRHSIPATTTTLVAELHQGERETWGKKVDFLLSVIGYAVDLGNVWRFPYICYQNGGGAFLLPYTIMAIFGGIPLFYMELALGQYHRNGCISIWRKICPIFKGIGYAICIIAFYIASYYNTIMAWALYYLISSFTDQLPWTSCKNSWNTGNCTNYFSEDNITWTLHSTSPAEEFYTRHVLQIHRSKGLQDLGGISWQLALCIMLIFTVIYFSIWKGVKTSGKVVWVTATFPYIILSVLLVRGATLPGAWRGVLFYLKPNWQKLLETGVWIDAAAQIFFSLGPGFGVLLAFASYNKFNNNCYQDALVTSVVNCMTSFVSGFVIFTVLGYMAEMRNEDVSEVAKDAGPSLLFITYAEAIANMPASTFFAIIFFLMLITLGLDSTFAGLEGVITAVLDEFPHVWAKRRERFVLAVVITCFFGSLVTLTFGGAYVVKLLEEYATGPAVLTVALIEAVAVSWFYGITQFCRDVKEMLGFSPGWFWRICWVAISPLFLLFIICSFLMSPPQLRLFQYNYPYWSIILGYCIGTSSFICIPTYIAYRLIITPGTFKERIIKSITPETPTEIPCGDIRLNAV
Experimental: Assesment of 5-HT reuptake inhibition.
Inhibition assessment of 5-HT reuptake was performed as follows. The mammalian expression plasmid pcDNA3.1 containing human 5-HT transporter (hSERT) cDNA has been described previously. HEK-293 MSR cells (Invitrogen) were cultured as monolayers in Dulbecco's modified Eagle's medium (BioWhitaker) supplemented with 10% fetal calf serum (Invitrogen), 100 units/mL penicillin, 100 µg/mL streptomycin (BioWhitaker) and 6 µg/mL Geneticin (Invitrogen) at 95% humidity, 5% p(CO2) and 37°C. Cells were detached from the culture flasks by Versene (Invitrogen) and trypsin/EDTA (BioWhitaker) treatment for subculturing or seeding into white TC-microtiter plates (Nunc). Transfection and measurement of [^3H]5-HT (PerkinElmer Life Sciences) uptake was performed as described by Larsen et al. (2004) except that HEK-293 MSR cells (Invitrogen) were used instead of COS-1 cells.

[3] = inhibition of myeloperoxidase enzyme, Table 1, compounds of the invention, read-out: IC50
[4] = inhibition of LDL oxidation, Table 2, read-out: IC50
[5] = Table 3, 3-amidoindole analogues, read-out: MPO IC50
[6] = Table 3, 3-amidoindole analogues, oxidation of LDL, read-out: Mox LDL IC50

SMILES	inhibition properties against myeloperoxidase enzyme (recombinant MPO)	IC50 (recombinant MPO; [3])	IC50 [1, 4]	Ki [2]	IC50 (recombinant MPO; [5])	IC50 [1, 6]
NCCc1c[nH]c2c(F)cccc12.O=C(O)C(=O)O [Compound 26, 3-(2-Aminoethyl)-7-fluoro-1H-indole oxalate]	enhanced inhibition properties	–	–	–	–	–
NCCCc1c[nH]c2c(F)cccc12.O=C(O)C(=O)O [Compound 27, 3-(3-Aminopropyl)-7-fluoro-1H-indole oxalate]	enhanced inhibition properties	–	–	–	–	–
NCCCCc1c[nH]c2c(F)cccc12 [Compound 30, 3-(4-Aminobutyl)-7-fluoro-1H-indole oxalate]	–	6 nM	21 nM	–	–	–
NCCSCCc1c[nH]c2ccc(F)cc12 [Compound 32, 3-(2-(2-Aminoethylthio)ethyl)-5-fluoro-1H-indole oxalate]	–	4 nM	8 nM	–	–	–
NCCSCCCc1c[nH]c2ccc(F)cc12 [Compound 33, 3-(3-(2-Aminoethylthio)propyl)-5-fluoro-1H-indole oxalate]	–	–	21 nM	–	–	–
N#CSCCCc1c[nH]c2ccc(F)cc12 [Compound 34, 5-Fluoro-3-(3-thiocyanatopropyl) 1H-indole]	–	5 nM	23 nM	212 nM	–	–
CCN(CCc1c[nH]c2ccc(F)cc12)S(C)(=O)=O [Compound 35, 5-Fluoro-3-(2-(N-ethylmethanesulfonamido)ethyl)-1H-indole]	–	14 nM	27 nM	174 nM	–	–
CCN(CCCc1c[nH]c2ccc(F)cc12)S(C)(=O)=O [Compound 36, 5-Fluoro-3-(3-(N-ethylmethanesulfonamido)propyl)-1H-indole]	–	–	27 nM	–	–	–
NCCSCCc1c[nH]c2c(F)cccc12 [Compound 43, 3-(2-(2-Aminoethylthio)ethyl)-7-fluoro-1H-indole oxalate]	–	3 nM	6 nM	25 nM	–	–
ONCCCc1c[nH]c2ccc(F)cc12 [Compound 45, 3-(3-N-Hydroxylaminopropyl)-5-fluoro-1H-indole]	–	11 nM	21 nM	20 nM	–	–
NC(=O)CCCc1c[nH]c2c(F)cccc12 [Compound 54, 3-(4-(butylamido))-7-fluoro-1H-indole]	–	–	24 nM	–	26 nM	24 nM
NC(=O)CCCc1c[nH]c2ccc(F)cc12 [Compound 56, 3-(4-(Butylamido))-5-fluoro-1H-indole]	–	18 nM	18 nM	631 nM	18 nM	18 nM
NC(=O)CCCCc1c[nH]c2c(F)cccc12 [Compound 57, 3-(5-(pentylamido)) -7-fluoro-1H-indole]	–	–	–	–	39 nM	43 nM
NC(=O)CCCCc1c[nH]c2ccc(F)cc12 [Compound 58, 3-(5-(pentylamido)) -5-fluoro-1H-indole]	–	–	–	–	35 nM	44 nM
CNC(=O)CCCc1c[nH]c2ccc(F)cc12 [Compound 59, 3-(4-(N-methyl, butylamido))-5-fluoro-1H-indole]	–	–	–	–	40 nM	95 nM
